Like-named read-outs stand apart in the source and are kept apart here.
Experiments:
[1] = test system: male beagle dogs
Protocol: (§1) Doses were administered orally by gavage and clinical observations were taken continuously following dosing: hourly for the first four hours, and then twice daily cage-side observations for the duration of the inter-dose or post-dose interval. Observations were made of clinical signs, mortality, injury and availability of food and water. Animals were fasted for 24 hr prior to dosing. Dogs in each group were exposed to only one drug, or the combination; each dose was administered only once, with a subsequent dose administered after a recovery period of 4 days.

[2] = test system: monkeys; settings: single oral dose; cited from earlier work
[3] = biological target: human cloned dopamine receptor D5 (Homo sapiens, UniProt P21918); settings: historic data; cited from earlier work
[4] = test system: rodents
[5] = test system: human subjects; settings: cited from earlier work
[6] = test system: rodents; settings: single oral dose, and above; cited from earlier work
[7] = in vivo; settings: male, beagle, dog
Protocol: as §1

[8] = test system: dogs; settings: single oral dose, and above; cited from earlier work
[9] = Dissolution of exploratory combination capsules in simulated gastric fluid (SGF), chiral HPLC; type: physicochemical; settings: for Average Concentrations of the enantiomer, Experiments SGF (1) and SGF (2) / Concentration of the enantiomer in SGF (1) Vessel / Concentration of the enantiomer in SGF (2) Vessel: combination capsule in 10 mL SGF pH 1.2
Protocol: Drug Formulation. […] Normal phase, chiral HPLC was used for monitoring the release of R(+) pramipexole and S(−) pramipexole in simulated gastric fluid (SGF).
Dissolution Study. SGF (pH=1.2) was prepared by diluting 1 g of sodium chloride and 7 mL of concentrated HCl to 1 L with HPLC grade water. The dissolution experiment was run as follows: an exploratory combination capsule was placed in 10 mL of SGF and shaken under ambient conditions at 600 RPM for 60 minutes. Aliquots of 100 μL were pulled from the same sample vessel at various time points. The 100 μL samples of SGF solution were evaporated using a nitrogen bleed and heat and the residues were dissolved in the HPLC diluent and filtered through 0.45 μm syringe filters. […] This experiment was performed in duplicate (experiment numbers SGF (1) (see Table 4) and SGF (2) (see Table 5)) and the results are also provided in average values (see Table 6). The tables and figures below summarize the results from these experiments.

[10] = male, beagle, dog, in vivo, 1 study day
[11] = male, beagle, dog, in vivo, 8 study day
[12] = non-naïve male beagle dogs, single oral dose
[13] = 4320 minutes, stored benchtop in clear vial

Sequence of human cloned dopamine receptor D5 (P21918 whole entry): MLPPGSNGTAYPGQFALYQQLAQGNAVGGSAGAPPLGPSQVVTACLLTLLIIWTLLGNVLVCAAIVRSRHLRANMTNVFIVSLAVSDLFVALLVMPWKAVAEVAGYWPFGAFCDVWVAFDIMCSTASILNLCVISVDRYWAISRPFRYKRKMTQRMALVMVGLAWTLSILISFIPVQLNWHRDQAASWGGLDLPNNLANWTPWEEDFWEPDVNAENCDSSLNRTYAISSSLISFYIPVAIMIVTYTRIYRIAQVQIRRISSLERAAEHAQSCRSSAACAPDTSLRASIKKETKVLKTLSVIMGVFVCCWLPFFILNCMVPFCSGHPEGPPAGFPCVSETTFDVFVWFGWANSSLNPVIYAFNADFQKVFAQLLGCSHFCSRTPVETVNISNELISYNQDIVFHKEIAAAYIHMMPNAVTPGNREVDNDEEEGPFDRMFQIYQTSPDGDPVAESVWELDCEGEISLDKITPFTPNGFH

Which “human dose equivalent to dog MTD” value ([1]; 70 kg individual) does the source give for CCCN[C@H]1CCc2nc(N)sc2C1 [S(−) pramipexole] here?
The value was 0.30 mg.

What about the “human dose equivalent to dog NOAEL” value ([1]; 70 kg individual) of the same compound?
The value was 0.05 mg.

And the “human dose equivalent to dog NOAEL” value ([1]; human equivalent)?
The value was 0.7 µg/kg.

And the “Feces mucoid (animals affected/total)” value ([1]; male, beagle, dog, in vivo)?
Its value is 0/4.

What about the “Feces soft (animals affected/total)” value ([1]; male, beagle, dog, in vivo) of the same compound?
The value was 0/4.

And the “Feces watery (animals affected/total)” value ([1]; male, beagle, dog, in vivo)?
Its value is 0/4.

What about the “Lacrimation (animals affected/total)” value ([1]; male, beagle, dog, in vivo) of the same compound?
The value was 0/4.

What about the “Pupils dilated (animals affected/total)” value ([1]; male, beagle, dog, in vivo) of the same compound?
The value was 0/4.

What about the “Skin warm to touch (animals affected/total)” value ([1]; male, beagle, dog, in vivo) of the same compound?
The value was 0/4.

What about the “Activity decreased (animals affected/total)” value [1, 10] of the same compound?
The value was 3/4.

And the “Convulsions-clonic (animals affected/total)” value [1, 10]?
Its value is 0/4.

What about the “Emesis (animals affected/total)” value [1, 10] of the same compound?
Its value is 3/4.

And the “Salivation (animals affected/total)” value [1, 10]?
Its value is 0/4.

And the “Tremors (animals affected/total)” value [1, 10]?
The value was 1/4.

And the “Activity decreased (animals affected/total)” value [1, 11]?
Its value is 0/4.

What about the “Emesis (animals affected/total)” value [1, 11] of the same compound?
Its value is 0/4.

And the “Tremors (animals affected/total)” value [1, 11]?
The value was 0/4.

What about the MTD [1, 12] of the same compound?
Its MTD is 7.5 µg/kg.

What about the NOAEL [1, 12] of the same compound?
The NOAEL was 1.25 µg/kg.

And the “dose at which major excitation was displayed” value [2]?
Its value is 3500 µg/kg.

What about the Ki [3] of the same compound?
The Ki was greater than 50 µM.

What about the “human dose equivalent to rodent lethal dose” value ([4]; human equivalent) of the same compound?
Its value is 7000 to 12000 µg/kg.

And the “human dose equivalent to rodent lethal dose” value ([4]; rodents, in vivo)?
Its value is 500 to 850 mg.

What about the “dose shown to cause somnolence” value [5] of the same compound?
Its value is 1.5 mg.

And the “initial, single doses not tolerated” value [5]?
Its value is “greater than 0.20 milligrams”.

And the “doses at which deaths occurred” value [6]?
Its value is 70000 to 105000 µg/kg.

What about the MTD at 4 days [7] of the same compound?
Its MTD at 4 days is 4.2 µg/kg.

What about the “dose at which vomiting occurred” value [8] of the same compound?
Its value is no less than 0.7 µg/kg.

And the “Average Concentrations of the enantiomer, Experiments SGF (1) and SGF (2)” value (from here on “Average Concentrations of the enantiomer”) ([9]; 3 minutes)?
Its value is 0 mg/mL.

What about the “Concentration of the enantiomer in SGF (1) Vessel” value (“Concentration … (1) Vessel” for short) ([9]; 3 minutes) of the same compound?
The value was 0 ng/mL.

What about the “Concentration of the enantiomer in SGF (2) Vessel” value (“Concentration … (2) Vessel” for short) ([9]; 3 minutes) of the same compound?
Its value is 0 ng/mL.

And the “Average Concentrations of the enantiomer” value ([9]; 4 minutes)?
Its value is 0 mg/mL.

What about the “Concentration … (1) Vessel” value ([9]; 4 minutes) of the same compound?
The value was 0 ng/mL.

And the “Concentration … (2) Vessel” value ([9]; 4 minutes)?
The value was 0 ng/mL.

And the “Average Concentrations of the enantiomer” value ([9]; 6 minutes)?
Its value is 0 mg/mL.

And the “Concentration … (1) Vessel” value ([9]; 6 minutes)?
The value was 0 ng/mL.

And the “Concentration … (2) Vessel” value ([9]; 6 minutes)?
The value was 0 ng/mL.

What about the “Average Concentrations of the enantiomer” value ([9]; 8 minutes) of the same compound?
Its value is 0 mg/mL.

And the “Concentration … (1) Vessel” value ([9]; 8 minutes)?
Its value is 0 ng/mL.

And the “Concentration … (2) Vessel” value ([9]; 8 minutes)?
The value was 0 ng/mL.

What about the “Average Concentrations of the enantiomer” value ([9]; 10 minutes) of the same compound?
Its value is 0.003489 mg/mL.

What about the “Concentration … (1) Vessel” value ([9]; 10 minutes) of the same compound?
The value was 6978 ng/mL.

And the “Concentration … (2) Vessel” value ([9]; 10 minutes)?
Its value is 0 ng/mL.

What about the “Average Concentrations of the enantiomer” value ([9]; 11 minutes) of the same compound?
Its value is 0.00738 mg/mL.

What about the “Concentration … (1) Vessel” value ([9]; 11 minutes) of the same compound?
The value was 8956 ng/mL.

And the “Concentration … (2) Vessel” value ([9]; 11 minutes)?
Its value is 5803 ng/mL.

And the “Average Concentrations of the enantiomer” value ([9]; 12 minutes)?
Its value is 0.009645 mg/mL.

And the “Concentration … (1) Vessel” value ([9]; 12 minutes)?
The value was 10830 ng/mL.

And the “Concentration … (2) Vessel” value ([9]; 12 minutes)?
The value was 8460 ng/mL.

What about the “Average Concentrations of the enantiomer” value ([9]; 14 minutes) of the same compound?
Its value is 0.015 mg/mL.

And the “Concentration … (1) Vessel” value ([9]; 14 minutes)?
The value was 15340 ng/mL.

And the “Concentration … (2) Vessel” value ([9]; 14 minutes)?
Its value is 14660 ng/mL.

What about the “Average Concentrations of the enantiomer” value ([9]; 15 minutes) of the same compound?
Its value is 0.01769 mg/mL.

What about the “Concentration … (1) Vessel” value ([9]; 15 minutes) of the same compound?
The value was 17690 ng/mL.

What about the “Concentration … (2) Vessel” value ([9]; 15 minutes) of the same compound?
The value was 17700 ng/mL.

What about the “Average Concentrations of the enantiomer” value ([9]; 17 minutes) of the same compound?
Its value is 0.02176 mg/mL.

And the “Concentration … (1) Vessel” value ([9]; 17 minutes)?
The value was 21570 ng/mL.

And the “Concentration … (2) Vessel” value ([9]; 17 minutes)?
Its value is 21960 ng/mL.

What about the “Average Concentrations of the enantiomer” value ([9]; 18 minutes) of the same compound?
The value was 0.02294 mg/mL.

And the “Concentration … (1) Vessel” value ([9]; 18 minutes)?
The value was 22230 ng/mL.

What about the “Concentration … (2) Vessel” value ([9]; 18 minutes) of the same compound?
Its value is 23650 ng/mL.

What about the “Average Concentrations of the enantiomer” value ([9]; 20 minutes) of the same compound?
Its value is 0.028 mg/mL.

And the “Concentration … (1) Vessel” value ([9]; 20 minutes)?
The value was 27330 ng/mL.

What about the “Concentration … (2) Vessel” value ([9]; 20 minutes) of the same compound?
Its value is 28670 ng/mL.

What about the “Average Concentrations of the enantiomer” value ([9]; 25 minutes) of the same compound?
Its value is 0.03742 mg/mL.

And the “Concentration … (1) Vessel” value ([9]; 25 minutes)?
The value was 37640 ng/mL.

And the “Concentration … (2) Vessel” value ([9]; 25 minutes)?
The value was 37210 ng/mL.

And the “Average Concentrations of the enantiomer” value ([9]; 30 minutes)?
Its value is 0.04566 mg/mL.

And the “Concentration … (1) Vessel” value ([9]; 30 minutes)?
The value was 48900 ng/mL.

And the “Concentration … (2) Vessel” value ([9]; 30 minutes)?
Its value is 42420 ng/mL.

And the “Average Concentrations of the enantiomer” value ([9]; 60 minutes)?
Its value is 0.05654 mg/mL.

What about the “Concentration … (1) Vessel” value ([9]; 60 minutes) of the same compound?
Its value is 51970 ng/mL.

And the “Concentration … (2) Vessel” value ([9]; 60 minutes)?
Its value is 61100 ng/mL.

And the “Average Concentrations of the enantiomer” value [9, 13]?
The value was 0.09309 mg/mL.

And the “Concentration … (1) Vessel” value [9, 13]?
Its value is 93670 ng/mL.

What about the “Concentration … (2) Vessel” value [9, 13] of the same compound?
Its value is 92500 ng/mL.

And the “course of release from the capsule” value ([9]; SGF pH 1.2, 60 minutes)?
The value was “did not go to completion after one hour”.

Source: patent US8445474B2 (Knopp Neurosciences, Inc., priority 2006, dated 2013)
